Measurements reported in publication PMC7794356, “Streamlined copper defenses make Bordetella pertussis reliant on custom-made operon” (Communications Biology, 2021).

Target: GorB (BP1729) (Bordetella pertussis, UniProt Q7VXM2)
Assay: NADPH oxidation followed at […] nm
Assay type: biochemical
Conditions: 0.3 mM NADPH, 8 mM GSH; GSSG generated in situ from GSH by H2O2 (0.1-2 mM); 0.1 M sodium/potassium phosphate pH 7.6, 25 °C

Sequence of GorB (BP1729) (Q7VXM2 entry or part of it): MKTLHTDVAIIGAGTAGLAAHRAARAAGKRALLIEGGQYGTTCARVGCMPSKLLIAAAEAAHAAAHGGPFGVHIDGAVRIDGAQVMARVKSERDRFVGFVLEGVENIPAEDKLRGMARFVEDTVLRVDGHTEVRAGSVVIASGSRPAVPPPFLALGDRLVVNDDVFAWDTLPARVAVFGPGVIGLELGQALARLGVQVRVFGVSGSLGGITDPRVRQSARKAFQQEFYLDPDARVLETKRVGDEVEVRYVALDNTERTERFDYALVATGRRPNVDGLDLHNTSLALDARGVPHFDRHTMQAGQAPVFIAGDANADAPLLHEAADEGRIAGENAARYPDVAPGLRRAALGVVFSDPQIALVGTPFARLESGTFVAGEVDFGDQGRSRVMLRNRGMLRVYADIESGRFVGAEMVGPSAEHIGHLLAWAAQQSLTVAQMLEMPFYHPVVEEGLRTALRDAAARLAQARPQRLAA

NC(=O)C1=CN([C@@H]2O[C@H](COP(=O)(O)OP(=O)(O)OC[C@H]3O[C@@H](n4cnc5c(N)ncnc54)[C@H](OP(=O)(O)O)[C@@H]3O)[C@@H](O)[C@H]2O)C=CC1 [NADPH]
NADPH oxidation followed at 340 nm: Oxidation of NADPH by recombinant GorB over time
